From publication PMC8958325 (iScience, 2022)

Tests used:
[1] = system: HeLa cells; experiment: Cell survival; type: cell-based; conditions: Homo sapiens, 24 h, read-out: IC50 (μM) for cell survival
[2] = target: T1, Rad6 (Homo sapiens, UniProt P63146); experiment: biochemical; type: biochemical; conditions: for inhibition of formation of the Rad6∼ubiquitin thioester conjugate: Alpha assay
[3] = target: Rad18 (Homo sapiens, UniProt P63146); experiment: biochemical; type: biochemical; conditions: for inhibition of Rad18 autoubiquitination: Alpha assay
Rad18 (Homo sapiens, UniProt P63146), sequence (P63146 whole entry): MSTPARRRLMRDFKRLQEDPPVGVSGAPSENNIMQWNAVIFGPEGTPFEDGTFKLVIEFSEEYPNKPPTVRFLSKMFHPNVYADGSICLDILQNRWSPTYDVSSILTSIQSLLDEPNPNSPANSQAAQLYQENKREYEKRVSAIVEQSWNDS

[4] = target: T1, Rad6; experiment: Microscale thermophoresis, binding to GFP-Rad6
[5] = target: Rad18 (Homo sapiens, UniProt Q9NS91); experiment: Microscale thermophoresis, binding to GFP-Rad18; conditions: low concentrations used for the Rad6-binding study
Rad18 (Homo sapiens, UniProt Q9NS91), sequence (Q9NS91 whole entry): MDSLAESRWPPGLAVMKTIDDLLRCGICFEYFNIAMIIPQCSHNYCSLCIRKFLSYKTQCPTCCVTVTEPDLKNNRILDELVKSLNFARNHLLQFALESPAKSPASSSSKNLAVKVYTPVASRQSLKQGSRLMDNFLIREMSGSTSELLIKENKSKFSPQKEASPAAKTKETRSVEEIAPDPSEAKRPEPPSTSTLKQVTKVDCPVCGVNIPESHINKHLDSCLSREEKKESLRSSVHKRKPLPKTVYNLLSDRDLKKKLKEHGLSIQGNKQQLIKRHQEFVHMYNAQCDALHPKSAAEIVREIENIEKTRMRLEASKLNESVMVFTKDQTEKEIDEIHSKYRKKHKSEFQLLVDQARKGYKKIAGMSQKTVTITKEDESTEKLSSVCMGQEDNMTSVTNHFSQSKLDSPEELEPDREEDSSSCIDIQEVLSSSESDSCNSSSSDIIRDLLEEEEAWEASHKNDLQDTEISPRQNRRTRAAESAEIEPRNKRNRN

[6] = system: PCNA ubiquitination; experiment: Alpha assay for overall PCNA ubiquitination; type: biochemical, human; conditions: for IC50: read-out: IC50 PCNA–Ub, SE and 95% CI in cell
[7] = target: T2, Uba1 (Homo sapiens, UniProt P22314); experiment: Uba1∼ubiquitin thioester formation Alpha assay; type: biochemical; conditions: for inhibition of Uba1∼ubiquitin thioester formation: Alpha assay
T2 sequence (P22314 1-1058): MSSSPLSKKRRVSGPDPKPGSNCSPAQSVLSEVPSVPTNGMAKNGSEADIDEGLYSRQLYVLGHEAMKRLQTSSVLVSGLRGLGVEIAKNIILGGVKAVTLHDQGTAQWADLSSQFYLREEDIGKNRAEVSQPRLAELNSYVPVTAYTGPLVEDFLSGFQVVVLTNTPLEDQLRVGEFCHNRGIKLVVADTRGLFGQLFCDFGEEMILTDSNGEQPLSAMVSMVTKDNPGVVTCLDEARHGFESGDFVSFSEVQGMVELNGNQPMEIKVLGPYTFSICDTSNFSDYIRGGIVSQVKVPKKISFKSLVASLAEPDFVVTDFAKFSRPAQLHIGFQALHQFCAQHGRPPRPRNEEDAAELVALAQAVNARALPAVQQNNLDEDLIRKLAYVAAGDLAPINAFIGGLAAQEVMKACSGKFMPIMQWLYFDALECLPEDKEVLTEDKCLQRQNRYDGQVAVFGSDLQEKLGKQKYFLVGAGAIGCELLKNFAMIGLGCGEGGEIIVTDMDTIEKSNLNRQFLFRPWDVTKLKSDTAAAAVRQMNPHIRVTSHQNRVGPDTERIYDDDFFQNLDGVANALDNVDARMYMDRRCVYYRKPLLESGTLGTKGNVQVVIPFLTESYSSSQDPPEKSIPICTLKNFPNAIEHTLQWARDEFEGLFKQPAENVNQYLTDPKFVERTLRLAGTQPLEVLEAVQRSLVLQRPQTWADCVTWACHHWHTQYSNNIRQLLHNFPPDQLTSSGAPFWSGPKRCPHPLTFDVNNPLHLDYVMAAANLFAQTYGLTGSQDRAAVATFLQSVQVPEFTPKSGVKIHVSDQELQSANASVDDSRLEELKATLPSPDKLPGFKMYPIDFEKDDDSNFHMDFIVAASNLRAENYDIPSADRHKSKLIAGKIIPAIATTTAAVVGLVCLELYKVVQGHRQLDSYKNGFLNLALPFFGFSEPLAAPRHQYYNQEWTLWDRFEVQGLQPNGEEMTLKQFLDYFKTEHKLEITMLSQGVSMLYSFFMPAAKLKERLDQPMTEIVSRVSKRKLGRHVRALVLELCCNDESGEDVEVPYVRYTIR

[8] = target: Rad6–Rad18 interaction (Homo sapiens, UniProt P63146); experiment: Rad6–Rad18 interaction Alpha assay; type: binding; conditions: for disruption of the Rad6–Rad18 interaction: Alpha assay
Rad6–Rad18 interaction, sequence (P63146 whole entry): as the sequence (P63146 whole entry) above

[9] = target: Rad6–Ubr1 interaction (Homo sapiens, UniProt P63146); experiment: Rad6–Ubr1 interaction Alpha assay; type: binding
Rad6–Ubr1 interaction, sequence (P63146 whole entry): as above

[10] = target: Mms2–Ubc13 (Homo sapiens, UniProt P61088+Q15819); experiment: Mms2–Ubc13∼ubiquitin thioester formation gel-based assay; type: biochemical; conditions: at 100 μM, silver-stained gel
Mms2–Ubc13, sequence (P61088 whole entry): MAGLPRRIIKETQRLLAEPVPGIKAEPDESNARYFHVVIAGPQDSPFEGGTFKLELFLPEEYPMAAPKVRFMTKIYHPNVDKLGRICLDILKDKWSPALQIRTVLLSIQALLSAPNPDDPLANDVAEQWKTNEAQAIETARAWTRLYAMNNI
Mms2–Ubc13, sequence (Q15819 whole entry): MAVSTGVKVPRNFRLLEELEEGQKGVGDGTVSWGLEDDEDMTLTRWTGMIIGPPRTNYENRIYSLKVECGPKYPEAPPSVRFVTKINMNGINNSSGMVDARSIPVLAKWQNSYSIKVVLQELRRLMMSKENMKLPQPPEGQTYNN

T1 sequence (P63146 whole entry): as the sequence (P63146 whole entry) above

| SMILES | IC50 [1] | IC50 [2] | inhibition of formation of the Rad6∼ubiquitin thioester conjugate [2] | IC50 [3] | inhibition of Rad18 autoubiquitination [3] | Kd [4] | binding to Rad18 [5] | IC50 [6] | IC50 [7] | IC50 [8] | disruption of the Rad6–Rad18 interaction [8] | IC50 [9] | Mms2–Ubc13∼Ub inhibition on gel [10] | Rad6–Ubr1 inhibition by Alpha ([9]; at 50 μM) | inhibition of Uba1∼ubiquitin thioester formation [7] | effect on PCNA ubiquitination ([6]; Figure 3G) |
| --- | --- | --- | --- | --- | --- | --- | --- | --- | --- | --- | --- | --- | --- | --- | --- | --- |
| O=c1cc2oc3cc(O)c(O)cc3c(-c3ccccc3O)c-2cc1O [NSC 9037, 2,6,7-trihydroxy-9-(2-hydroxyphenyl)-3H-xanthen-3-one] | 62.2 µM | 8.9 µM | inhibit | 4.46 µM | inhibit | 3.79 ± 2.94 µM | very weak binding | 4.54 µM | > 100 µM | 6.19 µM | disrupt | > 50 µM | No inhibition on gel at 100 μM |  |  |  |
| Cc1cc2c(-c3ccccc3)c3cc(C)c(N)cc3nc2cc1N [NSC 71947, 2,7-dimethyl-9-phenylacridine-3,6-diamine] | 11.8 µM |  |  |  |  |  |  | 24.9 µM | > 100 µM |  |  |  | No inhibition on gel at 100 μM |  |  |  |
| CN(C)c1ccc(-c2c3cc(O)c(=O)cc-3oc3cc(O)c(O)cc23)cc1 [NSC 80693, 9-[4-(dimethylamino)phenyl]-2,6,7-trihydroxy-3H-xanthen-3-one] | 7.67 µM | 91.8 µM | inhibit | 13.2 µM | inhibit |  |  | 4.28 µM | > 100 µM | 14.6 µM | disrupt |  | No inhibition on gel at 100 μM | Little inhibition by Alpha at 50 μM |  |  |
| O=C(O)c1cccc(-c2c3ccc(=O)cc-3oc3cc(O)ccc23)c1 [NSC 119888, 3-(3-hydroxy-6-oxoxanthen-9-yl)benzoic acid] | 75.3 µM |  |  |  |  |  |  |  | 53.8 µM |  |  |  | No inhibition on gel at 100 μM |  | inhibit |  |
| O=C(O)c1ccc(-c2c3ccc(=O)cc-3oc3cc(O)ccc23)cc1 [NSC 119891, 4-(3-hydroxy-6-oxoxanthen-9-yl)benzoic acid] | 208 µM |  |  |  |  |  |  |  | > 100 µM |  |  |  | No inhibition on gel at 100 μM |  |  |  |
| O=C(O)C1CC=CCC1c1c2ccc(=O)cc-2oc2cc(O)ccc12 (stereo not drawn) [NSC 157411, 6-(3-Hydroxy-6-oxo-xanthen-9-yl)cyclohex-3-ene-1-carboxylic acid] | 428 µM |  |  |  |  |  |  | 8.44 µM | 24.8 µM |  |  |  | No inhibition on gel at 100 μM |  | inhibit |  |
| COc1ccc(C2c3cc(O)c(OC)cc3Oc3cc(OC)c(O)cc32)cc1 [NSC 348718, 3,6-dimethoxy-9-(4-methoxyphenyl)-9H-xanthene-2,7-diol] | 27.7 µM |  |  |  |  |  |  | > 100 µM | > 100 µM |  |  |  | No inhibition on gel at 100 μM |  |  | inactive |
